{"source": "patent US20250205205A1", "about": "“METHODS AND COMPOSITIONS FOR PREVENTING AND TREATING FIBROSIS AND IMPROVING FUNCTIONAL RECOVERY AFTER INJURY OR WITH AGING” (East Carolina University, priority 2022, published 2025)", "key": {"sciatic nerve": {"test_system": "sciatic nerve", "experiment": "Sciatic nerve function: compound action potentials (CAPs) on electrical stimulation after sciatic nerve injury and long-term treatment (FIG. 2)", "format": "in vivo", "settings": "sciatic nerve injury; daily treatments of 100 μl in saline; PPX 0.5 mg/kg, morphine 1 mg/kg, alone or combined; representative animal", "method": "FIG. 2 depicts the in vitro effects of different long-term treatments on sciatic nerve function, as assessed by the response profiles of these nerves to electrical stimulation.\nThe CAP is an indicator of electrical activity in the nerve that is required for normal transmission of sensory information.\nThe effects in vitro of long-term treatments on sciatic nerve function were assessed by the response profiles of these nerves to electrical stimulation as shown in FIG. 2."}, "sciatic nerve injury": {"test_system": "sciatic nerve injury", "experiment": "Pain withdrawal reflex latencies after unilateral sciatic nerve injury and long-term treatment (FIG. 3)", "format": "in vivo", "settings": "unilateral sciatic nerve injury; long-term treatment; PPX 0.5 mg/kg, morphine 1 mg/kg, alone or combined", "from_the_text": "Filled circles show the reflex data of the injured side of the animal. […] Filled circles show the reflex data of the injured side of the animal. […] Filled circles show the reflex data of the injured side of the animal."}}, "data": [{"compound": "CN1CC[C@]23c4c5ccc(O)c4O[C@H]2[C@@H](O)C=C[C@H]3[C@H]1C5", "note": "[morphine]", "values": [{"measurement": "compound action potential (CAP) on stimulation of the nerve on the injured side", "setting": "sciatic nerve", "result": "failed to elicit a similarly strong CAP"}, {"measurement": "pain withdrawal reflex latencies of the injured side versus pre-injury data (days −3 to −1)", "setting": "sciatic nerve injury", "result": "did not lead to a recovery of withdrawal latencies to pre-injury data"}]}]}
